Results published in patent publication US4204039A, “Process for producing deoxynarasin antibiotics” (Eli Lilly and Company, priority 1978, dated 1980).
Structures can show the parent of a compound that is named as a salt.

Columns and labels:
solubility = assay type: physicochemical
stability in alcohols = assay type: physicochemical; settings: free acid; e.g. methanol, room temperature, four hours
Procedure: For example, 20-deoxynarasin acid (435.1 mg) was dissolved in methanol (40 ml) and allowed to stand at room temperature for four hours. The solution was then evaporated to dryness under vacuum; the residue was redissolved in dioxane and lyophilized to give 417.8 mg of 20-deoxy-epi-17-narasin acid.

Eimeria tenella = assay: chick feeding experiment, Eimeria tenella challenge; assay type: in vivo, chickens; settings: 100 ppm in diet; Na salt
From the text: A feeding experiment in young chickens confirms that the deoxynarasin antibiotics have anticoccidial activity in vivo.
^1 Two cages of four chickens each per treatment.
^2 Maximum possible score = 4.00.

Row | SMILES | solubility (solubility; methanol, ethanol, dimethylformamide, dimethyl sulfoxide, ethyl acetate, chloroform, acetone and benzene) | solubility (solubility; nonpolar organic solvents such as hexane) | solubility (solubility; water) | stability in alcohols (stability in alcohols) | mortality (in words) (Eimeria tenella) | number of lesions (in words) (Eimeria tenella) | weight gains (in words) (Eimeria tenella)
1 | CCC(C(=O)O)C1OC(C(C)C(O)C(C)C(=O)C(CC)C2OC3(C=CCC4(CCC(C)(C5CCC(O)(CC)C(C)O5)O4)O3)C(C)CC2C)C(C)CC1C (stereo not shown) [20-deoxynarasin] | soluble | only slightly soluble | insoluble | unstable in alcohols, converting to 20-deoxy-epi-17-narasin free acid |  |  | 
2 | CCC(C(=O)O)C1OC(C(C)C(O)C(C)C(=O)C(CC)C2OC3(C=CCC4(CCC(C)(C5CCC(O)(CC)C(C)O5)O4)O3)C(C)CC2C)C(C)CC1C (stereo not shown) [20-deoxynarasin (Na salt), 20-deoxynarasin] |  |  |  |  | prevented mortality | decreased the number of lesions | improved weight gains
